Experimental findings from US20240209061A1, “FUSION PROTEINS AND USES THEREOF” (Pfizer Inc., priority 2020, published 2024) are described below.

In assay [1] the test system is EMT6 murine breast cancer cells. Nature of the assay: EMT6 breast cancer model, combination with talazoparib. The note with it: for Day 20 tumor volume: talazoparib 0.33 mg/kg daily where combined; for % tumor growth inhibition: Day 20, talazoparib 0.33 mg/kg where combined. The class given is in vivo, mouse. As to the method:
EMT6murine breast cancer cells (3×10^5) were orthotopically implanted in the mammary fat pad of female Balb/c mice. When tumors reached ˜90 mm^3 (day 5 after implantation), mice were randomized and dosed with PBS vehicle control, CD80-K89Q-D90Q-E23C-A26C-Fc (0.1 or 1 mg/kg), and/or 0.33 mg/kg talazoparib (Tala). CD80-D90Q-Fc was dosed on Days 0 and 3, talazoparib was dosed daily. Tumor volume was determined by caliper measurements obtained in 2 dimensions and calculated as width^2×length/2. Error bars are depicted as ±SEM

A further assay has as its system human PBMCs (T cells). Nature of the assay: Co-stimulation of primary human T cells with CEFT peptide. It is filed as cell-based. As to the method:
Serial, 3-fold dilutions of CD80-K89D-D90K-T28V-T57V-Fc and CD80-WT-Fc were prepared in complete IMDM medium (10% FBS, 1% Pen/Strep). CEFT peptide (PM-CEFT, JPT Peptide Technologies) was reconstituted in the same medium to the final concentration of 1 μg/ml. Frozen human PBMCs were thawed following a standard protocol and 250,000 were seeded per well of flat bottom 96-wells plates. CEFT peptide and appropriate concentration of the CD80-Fc fusion proteins were added to the cell suspension. Plates were sealed with breathable plate sealers and incubated for 72 hours at 37° C. in a CO2 incubator. Six hours prior to cell harvest, culture supernatants were collected and stored at −20° C. until used for cytokine analysis by MSD (V-Plex pro-inflammatory panel human kit, Meso Scale Discovery). At the same time brefeldin A solution was added to the cells, to enable intracellular accumulation of cytokines for evaluation by flow cytometry. Upon harvest, cells were stained for surface (among others CD25) and intracellular markers (among others Ki-67 and IFNγ) following a standard flow cytometry staining protocol. Data was collected using BD LSR Fortessa and analyzed using FlowJo v10 software.

The next assay has as its system CD3+ T cells from PBMCs. Nature of the assay: Gene expression pattern in primary human T cells (Nanostring). It is filed as cell-based. The following applies: with anti-human CD3 antibody; 24 hour. The method, then:
96-well plates were coated overnight with 1 μg/ml of anti-human CD3 antibody (HIT3a clone, BioLegend). The following day, plates were washed 2× with PBS and blocked for 1 hour with 200 μl of complete IMDM (10% FBS, 1% Pen/Strep)/well. Upon removal of the blocking medium, plates were seeded with 250,000 PBMCs derived from three different donors and the following proteins: 1) 1.2 μg/ml CD80-K89D-D90K-T28V-T57V-Fc (concentration associated with max IL-2 production in similar assays), 2) 12 μg/ml CD80-WT-Fc (concentration associated with max IL-2 production in similar assay), and 3) 5 μg/ml anti-human CD28 antibody.
After 24 hour incubation at 37° C. in a CO2 incubator, cells were harvested and stained with viability dye and anti-human CD3 (UCHT1 clone, Biolegend)). Viable CD3+ T cells were flow sorted and used for RNA extraction following Qiagen RNeasy protocol. Isolated RNA was used for a gene expression analysis utilizing Nanostring platform.

Assay [2] deals with NY-ESO1-TCR+ Jurkat reporter cells. Nature of the assay: Jurkat-NYESO1-IL-2-Luc and A375-CD64 co-stimulation assay. The class given is cell-based, human. From the text: Jurkat-IL-2-Luc reporter cells (Promega, Product #J1631) were engineered with T cell receptor, TCR (Wargo J. Cancer Immunol Immunother 2009; Zhao Y. J Immunol 2005, Li Y, Nat Biotechnol 2005) against HLA-A2 restricted NY-ESO1 (SLLMWITQC-SEQ ID NO: 19) epitope using lentiviral transduction system. Human melanoma cells A375, which express human HLA-A*0201, were transduced with lentiviral vector containing endogenous codon for NY-ESO1 gene (Refseq accession NM_001327.2, CCDS14758.1). Upon expression, the construct underwent proteolytic cleavage at the ubiquitin/epitope junction, thus generating free, cytoplasmic epitope, which can be translocated into the endoplasmic reticulum and loaded onto class I HLA. A375-NY-ESO1 positive cells were treated with IFNγ to induce HLA expression and NY-ESO1 antigen presentation. The HLA expression and the antigen presentation was confirmed by Western Blot. The NY-ESO1^+-A375 cells were further engineered to express human FCγRI (CD64, GenBank:AAA58414.1, RefSeq:P12314.1) for cell surface assembly and displaying of CD80-Fc fusion proteins. The expression of FCγRI was confirmed by flow cytometry analysis.
A 96 well culture plate was seeded with NY-ESO1^+-A375 cells or NY-ESO1^+/FCγRI^+-A375 at 40,000 cells per well in 100 µL growth media (RPMI, 10% Heat Inactivated FBS, 200 μg/mL Hygromycin B, 1 mM sodium pyruvate, 0.1 mM MEM NEAA, 1 μg/mL puromycin) containing 10 ng/ml of human IFNγ (R&D Systems, product #285-IF) to induce MHC-A2 expression and grown overnight at 37° C. in CO2 incubator. To each well, NY-ESO1-TCR^+ Jurkat reporter cells, 100,000 (in 20 μL media), were added. 20 μL of serial dilutions of variant CD80-Fc fusion proteins with concentrations ranging from 0-1000 ng/ml (final concentrations per well) was added with appropriate controls. Assay plates were incubated for 6 hours at 37° C. in CO2 incubator. Following equilibration, 80 μL BioGlo luminescence reagent (BioGlo Luciferase assay kit, Promega, G7940) was added into each well. Plates were incubated for 5 minutes before reading luminescence on the EnSight™ plate reader (PerkinElmer).

The test system of assay [3] is CT26 murine colorectal carcinoma cells. Nature of the assay: CT26 colorectal carcinoma model, combination with αPD1 antibody. It is filed as in vivo, mouse. The following applies: for Day 13 tumor volume / % tumor growth inhibition: αPD1 Ab 10 mg/kg where combined; for % tumor growth inhibition: Day 13. As to the method: CT26 murine colorectal carcinoma cells (1×10^6) were subcutaneously implanted in the hind flank of female Balb/c mice. When tumors reached ˜100 mm3 (day 8 after implantation), mice were randomized and dosed with PBS vehicle control, 0.1 mg/kg CD80-D90Q-Fc, and/or 10 mg/kg murine αPD1 antibody. CD80-D90Q-Fc was dosed on Days 0 and 3, αPD1 antibody was dosed on Days 0, 3 and 6. Tumor volume was determined by caliper measurements obtained in 2 dimensions and calculated as width^2×length/2. Error bars are depicted as ±SEM
IFNγ ELIspot was used to measure tumor-reactive T cells in the spleen and TDLNs in mice treated with 1 mg/kg D90Q, αPD1 Ab, or the combination. […] The combination led to an even higher amount of tumor-reactive T cells in the TDLN compared to either agent alone.

The mark [4] stands for this setting: CEFT peptide, compared with CD80-WT-Fc.
The mark [5] stands for this setting: CD80-D90Q-Fc 1 mg/kg and/or αPD1 Ab, n=4 per group.

Consider “CD80-K89Q-D90Q-E23C-A26C-Fc: disulfide stabilized variant CD80-Fc fusion protein (K89Q, D90Q, E23C, A26C)”, for which, in assay [1] (CD80-Fc dose 0.1 mg/kg), the “Day 20 tumor volume” value is listed as 1149.2 mm^3 and the “% tumor growth inhibition” value was found to be 43.1%. Further, in assay [1] (CD80-Fc dose 1 mg/kg), the “Day 20 tumor volume” value is listed as 637.5 mm^3 and the “% tumor growth inhibition” value is on record as 70.5%.
Consider “CD80-K89D-D90K-T28V-T57V-Fc: non-cysteine stabilized variant CD80-Fc fusion protein (K89D, D90K, T28V, T57V)”, for which, in the assay with human PBMCs (T cells) (setting [4]), the “increase in CD25 expression of CD8+ T cells” value is reported as roughly 30% and the “increase in Ki-67 staining (proliferative capacity) of CD8+ T cells” value is given as roughly 30%. The “IFNγ production relative to CD80-WT-Fc” value in the assay on human PBMCs (T cells) (MSD in cell supernatant) is reported as “enhanced IFNγ production”. In addition, the “% of IFNγ+CD8+ T cells relative to CD80-WT-Fc” value in the assay with human PBMCs (T cells) (flow cytometry) is given as “higher % of IFNγ+CD8+ T cells”. For the same substance, in the assay with CD3+ T cells from PBMCs, the “IL7Rα- and TIGIT-encoding genes relative to anti-human CD3-only baseline, compared to CD80-WT-Fc” value is on record as “greater decrease”; the “expression level of OX-40-encoding gene relative to CD80-WT-Fc” value is “enhanced”; the “expression of anti-apoptotic BCL-XL compared to CD80-WT-Fc” value was “enhanced expression”; the “expression of pro-apoptotic CASP8 compared to CD80-WT-Fc” value was “decreased expression”. Besides, in the assay with CD3+ T cells from PBMCs, the “gene expression of IL-2, IL-21 and Lymphotoxin Alpha (LTA) compared to CD80-WT-Fc” value was “enhanced gene expression”.
For “CD80-K89Q-D90Q-Fc: variant CD80 ECD (K89Q, D90Q) fused to human IgG1 Fc”, in assay [2], the “enhanced co-stimulation compared to CD80-WT-Fc” value is reported as “about 4 fold”.
Take “CD80-D90Q-Fc: variant CD80 ECD (D90Q) fused to human IgG1 Fc”: the “enhanced co-stimulation compared to CD80-WT-Fc” value in assay [2] was “about 4 fold”. In addition, in assay [3] (setting [5]), the “Tumor-reactive T cells (IFNγ ELIspot), Spleen” value is 881.42 and the “Tumor-reactive T cells (IFNγ ELIspot), TDLN” value turned out to be 361.08. Besides, in assay [3] (CD80-Fc dose 0.1 mg/kg), the “Day 13 tumor volume” value was determined as 776.1 mm^3 and the “% tumor growth inhibition” value worked out at 61.2%. In assay [3] (CD80-Fc dose 1 mg/kg), the “Day 13 tumor volume” value is 270.4 mm^3 and the “% tumor growth inhibition” value was 86.5%.
